Experimental data reported in patent US12435294B2, “Prevention of the oxidation of perfumery raw materials and food raw materials” (Firmenich SA, priority 2018, dated 2025).
Several values for one entry are separate records, joined by “and”; a condition that tells them apart may be missing. Equal values may be shown once. Blank lines part the entries; values can stand above or below the compound they belong to.

Experiments:
[1] = Solubility / miscibility observed on addition to the treated material; conditions: on addition to hydroalcoholic model citrus perfume
[2] = POV reduction in model citrus perfume (mixed citrus oil in 90/10 v/v ethanol/water); conditions: for POV (mmol/L) of treated / Reduction in POV (%): model citrus perfume, DMESi 0.3247 g; for Reduction in POV (%): vs untreated; for % POV Reduction / POV after Treatment: approximately 0.15 g in 15 mL model perfume; for POV after Treatment: untreated 5.55 mmol/L
[3] = POV reduction in autoxidized limonene; conditions: for POV / POV reduction: 250 μL in 20 mL autoxidized limonene
Procedure: The vial was shaken once and allowed to stand for 50 minutes. No further treatment was done prior to the POV testing. […] POV before treatment was 65.97 mEq./L, and POV after treatment was 17.21 mEq./L. […] The vial was shaken once and allowed to stand, while being monitored for POV value as a function of time. […] The vial was shaken once and allowed to stand, while being monitored for POV value as a function of time.

[4] = POV reduction in sunflower oil
[5] = HPLC chemiluminescence peak area of oxidized limonene; conditions: oxidized limonene 100 μL + 2 mg HDPA
Procedure: Preparation of the Treated Sample: Oxidized limonene (100 μL, with a starting POV of approximately 38 mmol/L) was treated with 2 mg of HDPA (approximately 2 eq of HP). The treated & un-treated limonene samples were allowed to stand on the benchtop under ambient laboratory light at room temperature, and HPLC Chemiluminescence measurements were taken periodically. The same quantity of untreated limonene was prepared in a 2nd vial and monitored similarly to the treated one for comparison.

solubility / miscibility in model citrus perfume (in words) [1]: miscible with the perfume
SMILES: C[SiH](C)O[Si](C)(C)C [PMDSi, Pentamethyldisiloxane]

SMILES: CC[SiH](C)C [DMESi, Dimethylethylsilane]
POV (mmol/L) of treated ([2]; 0 d since addition): 13.2 mmol/L
Reduction in POV (%) ([2]; 0 d since addition): 0.00%
POV (mmol/L) of treated ([2]; 0.08 d since addition): 9.29 mmol/L
Reduction in POV (%) ([2]; 0.08 d since addition): 29.62%
POV (mmol/L) of treated ([2]; 1.29 d since addition): 9.32 mmol/L
Reduction in POV (%) ([2]; 1.29 d since addition): 33.43%
POV (mmol/L) of treated ([2]; 5 d since addition): 10.53 mmol/L
Reduction in POV (%) ([2]; 5 d since addition): 30.03%
POV (mmol/L) of treated ([2]; 14 d since addition): 13.65 mmol/L
Reduction in POV (%) ([2]; 14 d since addition): 24.38%

SMILES: CCC(=O)C(=O)O [2-oxobutyric acid]
POV ([3]; 3 min since addition): 43.680 mEq/L
POV reduction ([3]; 3 min since addition): 34.1%
POV ([3]; 20 min since addition): 22.140 mEq/L
POV reduction ([3]; 20 min since addition): 66.6%
POV ([3]; 35 min since addition): 22.681 mEq/L
POV reduction ([3]; 35 min since addition): 65.8%
POV ([3]; 44 min since addition): 19.968 mEq/L
POV reduction ([3]; 44 min since addition): 69.9%
POV ([3]; 66 min since addition): 21.406 mEq/L
POV reduction ([3]; 66 min since addition): 67.7%
measured POV ([3]; additional 500 μL added (after 250 μL), additional 24 hours, 20 mL autoxidized limonene): 8.577 mEq./L
total reduction ([3]; additional 500 μL added, additional 24 hours): 87.1%

SMILES: CN(C)CCO.CN(C)CCO.O=C(O)CCC(=O)C(=O)O [AKG DiDeanol]
POV of Treated Perfume ([2]; 60 min, approximately 200 mg (1.0% w/v) in 20 mL model perfume (Example 9)): 5.95 mmol/L
POV of Treated Perfume ([2]; 75 min, 1.0% w/v in 20 mL model perfume (Example 9)): 5.66 mmol/L
POV of Treated Perfume ([2]; 115 min, 1.0% w/v in 20 mL model perfume (Example 9)): 4.96 mmol/L
POV of Treated Perfume ([2]; 195 min, 1.0% w/v in 20 mL model perfume (Example 9)): 3.20 mmol/L
POV of Treated Perfume ([2]; 210 min, 1.0% w/v in 20 mL model perfume (Example 9)): 3.08 mmol/L
POV of Treated Perfume ([2]; 300 min (5 hours), 1.0% w/v in 20 mL model perfume (Example 9)): 2.31 mmol/L
POV of Treated Perfume ([2]; 370 min, 1.0% w/v in 20 mL model perfume (Example 9)): 1.73 mmol/L
POV of Treated Perfume ([2]; 380 min, 1.0% w/v in 20 mL model perfume (Example 9)): 1.72 mmol/L
POV of Treated Perfume ([2]; […] (24 hours), 1.0% w/v in 20 mL model perfume (Example 9), indistinguishable from blank): 0.0 mmol/L

SMILES: CCCC(=O)C(=O)O [2-oxovaleric acid]
POV ([4]; 30 minutes since addition, 250 μL in 25 mL sunflower oil): 7.38 mmol/L
POV reduction ([4]; 30 minutes, 250 μL in 25 mL sunflower oil, vs most recent untreated POV): 16.2%
POV ([4]; 50 minutes since addition, 250 μL in 25 mL sunflower oil): 7.84 mmol/L
POV reduction ([4]; 50 minutes, 250 μL in 25 mL sunflower oil, vs most recent untreated POV): 11.0%
POV, averaged value (in parentheses) ([4]; 23 hours since addition, 250 μL in 25 mL sunflower oil): 4.81 mmol/L
POV ([4]; 23 hours since addition, 250 μL in 25 mL sunflower oil, single measurements): 4.95 mmol/L and 4.67 mmol/L
POV reduction ([4]; 23 hours, 250 μL in 25 mL sunflower oil, vs most recent untreated POV): 45.4%
POV, averaged value (in parentheses) ([4]; 46 hours since addition, 250 μL in 25 mL sunflower oil): 5.22 mmol/L
POV ([4]; 46 hours since addition, 250 μL in 25 mL sunflower oil, single measurements): 5.34 mmol/L and 5.10 mmol/L
POV reduction ([4]; 46 hours, 250 μL in 25 mL sunflower oil, vs most recent untreated POV): 53.0%
POV, averaged value (in parentheses) ([4]; 15 days since addition, 250 μL in 25 mL sunflower oil): 2.10 mmol/L
POV ([4]; 15 days since addition, 250 μL in 25 mL sunflower oil, single measurements): 2.27 mmol/L and 2.05 mmol/L and 1.99 mmol/L
POV reduction ([4]; 15 days, 250 μL in 25 mL sunflower oil (0.83% v/v), vs untreated oil): 82.9%
reduction in POV ([3]; 100 μL in 10 mL autoxidized limonene, 50 minutes, vs 65.97 mEq./L before): approximately 74%
POV after Treatment ([3]; 100 μL in 10 mL autoxidized limonene, stood 50 minutes): 17.21 mEq./L

SMILES: CCOC(=O)[C@@H](N)CS.Cl [L-Cysteine ethyl ester hydrochloride]
% POV Reduction ([2]; 89 minutes after addition): 100%
POV after Treatment ([2]; 89 minutes after addition): 0.00 mmol/L

SMILES: CC1=C(C(=O)N(C)C)CC(C(=O)N(C)C)=C(C)N1 [HDPA, N(3),N(3),N(5),N(5),2,6-Hexamethyl-1,4-Dihydro-3,5-Pyridinedicarboxamide]
Peak Area Treated ([5]; treatment time 1 day): 12723
Peak Area Treated ([5]; treatment time 6 days): 12128
Peak Area Treated ([5]; treatment time 13 days): 10978
Peak Area Treated ([5]; treatment time 20 days): 17089

SMILES: N[C@@H](CCC(=O)N[C@@H](CS)C(=O)NCC(=O)O)C(=O)O [glutathione]
% POV Reduction ([2]; 3 days after addition): 100%
POV after Treatment ([2]; 3 days after addition): 0.00 mmol/L
